ChEMBL document CHEMBL5380782, “Design, Biological Evaluation, and Computer-Aided Analysis of Dihydrothiazepines as Selective Antichlamydial Agents” (J Med Chem, 2023)

How the values were obtained:
[1] = tested on: Blautia producta; experiment: Antimicrobial activity against Blautia producta DSM 2950 assessed as microbial growth inhibition incubated for 48 hrs; format: functional
[2] = Mutagenicity in Salmonella typhimurium TA100 assessed as number of revertants per plate at 150 ug pretreated for 90 mins measured after 66 hrs by AMES test (reference value: 206 +/- 7.07); format: toxicity, Salmonella enterica subsp. enterica serovar Typhimurium; settings: in vivo, 67.5 h, dose 150 µg
[3] = Mutagenicity in Salmonella typhimurium TA98 assessed as mutagenic index ratio at 500 ug pretreated for 90 mins measured after 66 hrs in presence of S9 fraction by AMES test; format: toxicity, subcellular, Salmonella enterica subsp. enterica serovar Typhimurium; settings: s9, 67.5 h, dose 500 µg
[4] = Mutagenicity in Salmonella typhimurium TA98 assessed as number of revertants per plate at 1500 ug pretreated for 90 mins measured after 66 hrs by AMES test (reference value: 25.67 +/- 5.51); format: toxicity, Salmonella enterica subsp. enterica serovar Typhimurium; settings: in vivo, 67.5 h, dose 1500 µg
[5] = Mutagenicity in Salmonella typhimurium TA100 assessed as number of revertants per plate at 50 ug pretreated for 90 mins measured after 66 hrs in presence of S9 by AMES test (reference value: 201 +/- 9.90); format: toxicity, Salmonella enterica subsp. enterica serovar Typhimurium; settings: in vivo, 67.5 h, dose 50 µg
[6] = Mutagenicity in Salmonella typhimurium TA100 assessed as mutagenic index ratio at 50 ug pretreated for 90 mins measured after 66 hrs in presence of S9 by AMES test; format: toxicity, Salmonella enterica subsp. enterica serovar Typhimurium; settings: in vivo, 67.5 h, dose 50 µg
[7] = Mutagenicity in Salmonella typhimurium TA100 assessed as mutagenic index ratio at 500 ug pretreated for 90 mins measured after 66 hrs by AMES test; format: toxicity, Salmonella enterica subsp. enterica serovar Typhimurium; settings: in vivo, 67.5 h, dose 500 µg
[8] = tested on: Escherichia coli; experiment: Antimicrobial activity against Escherichia coli K12 assessed as microbial growth inhibition incubated for 24 hrs by TTC staining based assay; format: functional
[9] = Stability of compound in human serum assessed as compound remaining at 2 mg/ml measured after 24 hrs by HPLC analysis; format: ADME, cell-free; settings: read-out: Stability
[10] = Mutagenicity in Salmonella typhimurium TA98 assessed as number of revertants per plate at 500 ug pretreated for 90 mins measured after 66 hrs in presence of S9 fraction by AMES test (reference value: 24.33 +/- 9.50); format: toxicity, subcellular, Salmonella enterica subsp. enterica serovar Typhimurium; settings: s9, 67.5 h, dose 500 µg
[11] = Mutagenicity in Salmonella typhimurium TA100 assessed as number of revertants per plate at 5000 ug pretreated for 90 mins measured after 66 hrs by AMES test (reference value: 206 +/- 7.07); format: toxicity, Salmonella enterica subsp. enterica serovar Typhimurium; settings: in vivo, 67.5 h, dose 5000 µg
[12] = Mutagenicity in Salmonella typhimurium TA98 assessed as number of revertants per plate at 500 ug pretreated for 90 mins measured after 66 hrs by AMES test (reference value: 25.67 +/- 5.51); format: toxicity, Salmonella enterica subsp. enterica serovar Typhimurium; settings: in vivo, 67.5 h, dose 500 µg
[13] = Mutagenicity in Salmonella typhimurium TA100 assessed as mutagenic index ratio at 1500 ug pretreated for 90 mins measured after 66 hrs by AMES test; format: toxicity, Salmonella enterica subsp. enterica serovar Typhimurium; settings: in vivo, 67.5 h, dose 1500 µg
[14] = Mutagenicity in Salmonella typhimurium TA100 assessed as number of revertants per plate at 500 ug pretreated for 90 mins measured after 66 hrs by AMES test (reference value: 206 +/- 7.07); format: toxicity, Salmonella enterica subsp. enterica serovar Typhimurium; settings: in vivo, 67.5 h, dose 500 µg
[15] = Mutagenicity in Salmonella typhimurium TA100 assessed as mutagenic index ratio at 5000 ug pretreated for 90 mins measured after 66 hrs in presence of S9 by AMES test; format: toxicity, Salmonella enterica subsp. enterica serovar Typhimurium; settings: in vivo, 67.5 h, dose 5000 µg
[16] = Stability of compound in simulated intestinal fluid assessed as compound remaining at 2 mg/ml measured after 24 hrs by HPLC analysis; format: ADME; settings: read-out: Stability
[17] = Mutagenicity in Salmonella typhimurium TA98 assessed as number of revertants per plate at 50 ug pretreated for 90 mins measured after 66 hrs by AMES test (reference value: 25.67 +/- 5.51); format: toxicity, Salmonella enterica subsp. enterica serovar Typhimurium; settings: in vivo, 67.5 h, dose 50 µg
[18] = tested on: Acinetobacter baumannii; experiment: Antimicrobial activity against Acinetobacter baumannii 2208 assessed as microbial growth inhibition incubated for 24 hrs by TTC staining based assay; format: functional
[19] = Mutagenicity in Salmonella typhimurium TA98 assessed as number of revertants per plate at 150 ug pretreated for 90 mins measured after 66 hrs in presence of S9 fraction by AMES test (reference value: 24.33 +/- 9.50); format: toxicity, subcellular, Salmonella enterica subsp. enterica serovar Typhimurium; settings: s9, 67.5 h, dose 150 µg
[20] = Mutagenicity in Salmonella typhimurium TA98 assessed as mutagenic index ratio at 50 ug pretreated for 90 mins measured after 66 hrs in presence of S9 fraction by AMES test; format: toxicity, subcellular, Salmonella enterica subsp. enterica serovar Typhimurium; settings: s9, 67.5 h, dose 50 µg
[21] = Mutagenicity in Salmonella typhimurium TA98 assessed as mutagenic index ratio at 1500 ug pretreated for 90 mins measured after 66 hrs by AMES test; format: toxicity, Salmonella enterica subsp. enterica serovar Typhimurium; settings: in vivo, 67.5 h, dose 1500 µg
[22] = Stability of compound in simulated gastric fluid assessed as compound remaining at 2 mg/ml measured after 24 hrs by HPLC analysis; format: ADME; settings: read-out: Stability
[23] = Cytotoxicity against HEK293 cells assessed as cell survival at 256 ug/ml incubated for 20 hrs by XTT assay relative to control; format: toxicity, cell-based; settings: human, at 256 µg/mL, read-out: Survival
[24] = Mutagenicity in Salmonella typhimurium TA98 assessed as number of revertants per plate at 50 ug pretreated for 90 mins measured after 66 hrs in presence of S9 fraction by AMES test (reference value: 24.33 +/- 9.50); format: toxicity, subcellular, Salmonella enterica subsp. enterica serovar Typhimurium; settings: s9, 67.5 h, dose 50 µg
[25] = tested on: Lactiplantibacillus plantarum; experiment: Antimicrobial activity against Lactobacillus plantarum DSM 20174 assessed as microbial growth inhibition incubated for 24 hrs; format: functional
[26] = Mutagenicity in Salmonella typhimurium TA98 assessed as mutagenic index ratio at 5000 ug pretreated for 90 mins measured after 66 hrs by AMES test; format: toxicity, Salmonella enterica subsp. enterica serovar Typhimurium; settings: in vivo, 67.5 h, dose 5000 µg
[27] = tested on: Nakaseomyces glabratus; experiment: Antimicrobial activity against Candida glabrata 2001 assessed as microbial growth inhibition by broth microdilution method; format: functional
[28] = Mutagenicity in Salmonella typhimurium TA98 assessed as number of revertants per plate at 1500 ug pretreated for 90 mins measured after 66 hrs in presence of S9 fraction by AMES test (reference value: 24.33 +/- 9.50); format: toxicity, subcellular, Salmonella enterica subsp. enterica serovar Typhimurium; settings: s9, 67.5 h, dose 1500 µg
[29] = Cytotoxicity against HEC-1-A cells assessed as cell survival at 256 ug/ml incubated for 20 hrs by XTT assay relative to control; format: toxicity, cell-based; settings: human, at 256 µg/mL, read-out: Survival
[30] = Mutagenicity in Salmonella typhimurium TA100 assessed as number of revertants per plate at 50 ug pretreated for 90 mins measured after 66 hrs by AMES test (reference value: 206 +/- 7.07); format: toxicity, Salmonella enterica subsp. enterica serovar Typhimurium; settings: in vivo, 67.5 h, dose 50 µg
[31] = Mutagenicity in Salmonella typhimurium TA98 assessed as mutagenic index ratio at 50 ug pretreated for 90 mins measured after 66 hrs by AMES test; format: toxicity, Salmonella enterica subsp. enterica serovar Typhimurium; settings: in vivo, 67.5 h, dose 50 µg
[32] = tested on: Escherichia coli; experiment: Antimicrobial activity against non-pathogenic Escherichia coli ATCC MG1655 assessed as microbial growth inhibition incubated for 24 hrs by TTC staining based assay; format: functional
[33] = tested on: Chlamydia trachomatis; experiment: Antibacterial activity against Chlamydia trachomatis L2 infected in HEp-2 cells assessed as reduction in number of chlamydial inclusion incubated for 24 hrs by fluorescence microscopy; format: functional, organism-based; settings: dose 1.56-12.5 µg/ml
[34] = tested on: Pseudomonas aeruginosa; experiment: Antimicrobial activity against Pseudomonas aeruginosa PA01 assessed as microbial growth inhibition incubated for 24 hrs by TTC staining based assay; format: functional
[35] = Mutagenicity in Salmonella typhimurium TA100 assessed as mutagenic index ratio at 50 ug pretreated for 90 mins measured after 66 hrs by AMES test; format: toxicity, Salmonella enterica subsp. enterica serovar Typhimurium; settings: in vivo, 67.5 h, dose 50 µg

Compound: N#Cc1ccccc1C1Sc2ccccc2NC2=C1C(=O)c1ccccc12 (stereo not given)
- MIC [1]: > 125 µg/mL
- Activity [2]: 187.5
- Ratio [3]: 1.78
- Activity [4]: 39
- Activity [5]: 185
- Ratio [6]: 0.92
- Ratio [7]: 1.13
- MIC [8]: > 125 µg/mL
- remaining at 24 h, 2 mg/ml [9]: 80%
- Activity [10]: 43.5
- Activity [11]: 241
- Activity [12]: 38
- Ratio [13]: 1.16
- Activity [14]: 233
- Ratio [15]: 1.12
- remaining at 24 h, 2 mg/ml [16]: 85%
- Activity [17]: 26
- MIC [18]: > 125 µg/mL
- Activity [19]: 35
- Ratio [20]: 1.31
- Ratio [21]: 1.51
- remaining at 24 h, 2 mg/ml [22]: 70%
- viability at 20 h, 256 ug/ml [23]: ≥ 75%
- Activity [24]: 32
- MIC [25]: > 125 µg/mL
- Ratio [26]: 1.46
- MIC [27]: > 1000 µg/mL
- Activity [28]: 30.5
- viability at 20 h, 256 ug/ml [29]: ≥ 75%
- Activity [30]: 190.5
- Ratio [31]: 1.01
- MIC [32]: > 125 µg/mL
- Activity [33]: Dose-Dependent Effect
- MIC [34]: > 125 µg/mL
- Ratio [35]: 0.92
